Assay results taken from the METLIN SMRT retention time set (Domingo-Almenara et al. 2019).

test: gradient 5% acetonitrile 3 min, to 50% in 2 min, to 85% in 15 min, held 3 min, 100 µL/min; details: column: Zorbax Extend-C18 2.1 x 50 mm; eluents: water / acetonitrile, 0.1% formic acid
Method in brief: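 Over 3 months, pure standards in mixtures of ~100 molecules were run by HPLC coupled to a quadrupole time-of-flight mass spectrometer in positive and negative ionization mode. The column was a Zorbax Extend-C18 (2.1 × 50 mm, 1.8 μm) at 100 μL/min, eluted with water and acetonitrile each holding 0.1% formic acid, with 40 μL dead and 900 μL dwell volumes. Retention time was determined from adduct peaks chosen by software and checked manually.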

| SMILES | RP-LC retention time [s] |
| --- | --- |
| Cc1ccc(C(=O)C2=C(O)C(=O)N(c3ncccn3)C2c2cccc(Cl)c2)o1 (stereo unspecified) | 732 |
| Cc1ccn2c(C(C)O)nnc2c1 (stereo unspecified) | 574 |
| CC(C)c1ccc(N2C(=O)C3N=NN(Cc4nc(-c5ccc(Br)cc5)no4)C3C2=O)cc1 (stereo unspecified) | 1220 |
| Cn1ncc2c3ccccc3n(CC(=O)N3CCN(c4ccccn4)CC3)c2c1=O | 591 |
| O=C(CCC(=O)N1CC2CCCN2c2ccccc21)NCc1cccs1 (stereo unspecified) | 865 |
| CCCn1nc(-c2nc(-c3cccc(Cl)c3)no2)ccc1=O | 1150 |
| CC(NC(=O)C1CCN(C(=O)c2ncn3c2COC(c2ccc(F)cc2)C3)CC1)c1ccc(F)cc1 (stereo unspecified) | 790 |
| CC1CN(c2ccc(Br)cc2)c2nc3c(c(=O)n(CCCO)c(=O)n3C)n2C1 (stereo unspecified) | 833 |
| O=C(c1nnc(-c2ccc(S(=O)(=O)N3CCOCC3)cc2)o1)N1CCCCC1 | 785 |
| Cc1ccc(NC(=O)C2CCN(S(=O)(=O)c3cc(C(=O)N4CCCC4)cs3)CC2)c(C)c1 | 831 |
| CCN1C(=O)c2cccnc2Sc2cc(NC(=O)c3ccc(C)cc3)ccc21 | 859 |
| O=C(CN1CCC(c2nc(-c3ccc(F)cc3)no2)CC1)NC1CCCC1 | 678 |
| CCN(CC)C(=O)c1ccc2c(c1)N(CC(=O)NCCOC)C(=O)C1CCCCN21 (stereo unspecified) | 688 |
| O=C(NCc1ccco1)C1CCN(Cc2cc3ccccc3n2Cc2ccccc2)CC1 | 747 |
| CN(C)S(=O)(=O)c1ccc(C(=O)Nc2nc(-c3ccc4c(c3)OCO4)cs2)cc1 | 910 |
| CN(C)C(=O)c1ccc2c(c1)n(Cc1ccccc1)c(=O)c1ccnn12 | 768 |
| COc1ccccc1-c1coc2cc(OC(=O)c3cccs3)ccc2c1=O | 992 |
| Cc1ncc2c(n1)C[C@@H]1CC[C@H]2N1C(=O)c1sccc1C | 654 |
| CS(=O)(=O)Nc1ccc(C2(C(=O)NCc3ccccc3Cl)CCCCC2)cc1 | 946 |
| COc1ccc(CNC(=O)c2cn(C)nc2S(=O)(=O)N2CCSCC2)cc1 | 818 |
| O=C(NCC(O)c1ccsc1)Nc1cccc(Cl)c1 (stereo unspecified) | 734 |
| CN1CCC(Oc2ncccc2NS(=O)(=O)N(C)C)CC1 | 575 |

| SMILES | RP-LC retention time [s] |
| --- | --- |
| CCCc1ccc(S(=O)(=O)N2CCC3(CC2)NCCN=C3NCc2ccccc2OC)cc1 | 836 |
| O=C(CCc1c(-c2ccccc2)nc2ccccn12)Nc1ccc(F)cc1Cl | 795 |
| O=C(c1ccc(Cl)cc1)N1CCCN(c2nnc3ccccn23)CC1 | 650 |
| COc1ccc(C(=O)N2CCC3(CC2)N=C(c2cccc(Br)c2)NO3)c(OC)c1 | 832 |
| O=C(C1CCN(c2ccc(Sc3ccccc3)nn2)CC1)N1CCOCC1 | 647 |
| O=C(Nc1ccc(C(F)(F)F)cc1)c1cnc(-c2ccc(F)cc2)nc1-c1ccncc1 | 1070 |
| Cn1c(=O)n(CCN2CCOCC2)c(=O)c2c1nc1n2CCCN1C1CCCCC1 | 627 |
| CCn1ccc(C(=O)Nc2ccccc2C#N)n1 | 744 |
| Cc1ccc(NC(=O)Cn2nc(N3CCCC3)c3ccccc3c2=O)cc1 | 938 |
| COc1ccc(-c2nnc(-c3ccccc3Cl)o2)cc1S(=O)(=O)N1CCC(C)CC1 | 1150 |
| COc1ccc(-c2nc(-c3ccc4ncn(C(C)C)c4c3)no2)cc1OC | 727 |
| O=C(CCC(=O)N1CCCC1c1nc2ccccc2s1)N1CCc2ccccc21 (stereo unspecified) | 876 |
| CCCOc1nc2ccccc2nc1N1CCCC(C(=O)Nc2ccc(OC)cc2OC)C1 (stereo unspecified) | 1280 |
| CCOc1ccc(N2C(=O)C3N=NN(Cc4nc(-c5cccc(C)c5)no4)C3C2=O)cc1 (stereo unspecified) | 1040 |
| C=CCn1c(=O)c2ccccc2n(Cc2nc(-c3ccc(SC)cc3)no2)c1=O | 1100 |
| CCCC(=O)N1CCCn2nc(-c3cccnc3)cc2C1 | 577 |
| Cc1nnc(NC(=O)C2CCN(C(=O)c3ccc(F)cc3)CC2)s1 | 624 |
| CCCS(=O)(=O)N1CC(n2cc(C(=O)NCC3CC3)nn2)C1 | 722 |
| CS(=O)(=O)c1ccc(-c2cccc(NC(=O)Cc3cccs3)c2)nn1 | 707 |
| Cc1ccc(Nc2c(-c3ccc(Cl)cc3)nc3cnccn23)c(Br)c1 | 1170 |
| CCCn1cc(C(=O)NCc2ccc(C)cc2)c(S(=O)(=O)N2CCC(C)CC2)n1 | 1140 |
| CCn1ccc(-c2nc(CCS(=O)(=O)c3ccccc3)no2)n1 | 768 |

| SMILES | RP-LC retention time [s] |
| --- | --- |
| O=C(NCC1CCCO1)c1cn(-c2ccc(NC(=O)C3CC3)cn2)cn1 (stereo unspecified) | 633 |
| CCc1ccc(S(=O)(=O)N2CCN(c3ccc4nncn4n3)CC2)s1 | 693 |
| CCCOc1nc2ccccc2nc1N1CCCC(C(=O)Nc2cccc(C)c2C)C1 (stereo unspecified) | 1390 |
| Cc1ccccc1-c1nnc(CSc2nnc(NC(=O)c3cccc(F)c3)s2)o1 | 976 |
| C=CCNC(=O)CCc1c(-c2ccc(Cl)cc2)nc2ccccn12 | 615 |
| N#Cc1cccc(NC(=O)Cc2cn3cc(F)ccc3n2)c1 | 593 |
| O=c1n(Cc2ccccc2)nc2n1CCN(S(=O)(=O)c1ccc3c(c1)CCC3)CC2 | 931 |
| CC(C)Sc1ccc(CC(=O)NCC2(O)CCCC2)cc1 | 752 |
| O=C(NCC1CCCCC1)c1ccc2c(c1)nc1n2CCN(C2CCCCC2)C1=O | 872 |
| CCN(CC)c1nc2ccsc2c(=O)n1CC(=O)NCc1ccc(F)cc1F | 868 |
| CCOC(=O)c1c(S(=O)(=O)N2CCC(C(=O)Nc3ccc(F)cc3C)CC2)c(C)n(C)c1C | 897 |
| CCOCCOC(=O)C1=C(C)NC2=C(C(=O)CCC2)C1c1cccc(OC)c1OC (stereo unspecified) | 732 |
| Cc1cc(Cl)ccc1OCC(=O)N1CCn2c(nnc2C(C)C)C1 | 665 |
| CCS(=O)(=O)N1CCC(Cc2nncn2-c2ccccc2)C1 (stereo unspecified) | 631 |
| CCc1noc(NC(C)=O)c1-c1ccc(C)c(S(=O)(=O)Nc2ccc(C)cc2Br)c1 | 919 |
| CCCc1noc(-c2ccc3nnc(CC(=O)Nc4ccc(F)cc4)n3c2)n1 | 848 |
| COC(=O)c1c(C)[nH]c(C(=O)N2CCC(CC(=O)N3CCOCC3)CC2)c1C | 636 |
| Cc1nc(-c2noc(-c3cccnc3)n2)cn1CC(=O)NC1CCCC1 | 646 |
| CC(=O)Nc1ccc(NC(=O)c2nc3ccccn3c2-c2ccc(Cl)cc2)cc1 | 855 |
| Cc1ccc(-n2c(N3CCCC(C(=O)NCc4ccncc4)C3)nc3ccsc3c2=O)cc1 (stereo unspecified) | 627 |
| O=C(Cc1cccn1-c1ccc(F)cc1)NCc1ccc(F)cc1 | 922 |
| CCC(C(=O)Nc1cc(-c2cn3cccnc3n2)ccc1C)c1ccccc1 (stereo unspecified) | 680 |
